Data on nine compounds can be found in patent US9650339B2, “Inhibitors of histone demethylases” (Gilead Sciences, Inc., priority 2013, dated 2017).

One assay concerns the target T1, KDM6B (JMJD3) (Homo sapiens, UniProt O15054).
T1 construct: 1043-end; purchased BPS; host or cells: Bac (baculovirus system)
Kind of assay: Histone lysine demethylase AlphaLISA assay, KDM6B. The class given is biochemical. The note with it: read-out: KDM6B HDME Inhibition IC50. In a few lines: (§1)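 Steps: enzyme equilibrated 10 min in buffer; compounds in 3% DMSO solution added, 10 min; substrate mix added (peptide, 25 μM L-Asc, 10 μM α-KG), room temperature; acceptor beads, then streptavidin donor beads, dark incubations; plate read.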

The target in the next assay is KDM6A (UTX) (Homo sapiens, UniProt O15550). Kind of assay: Histone lysine demethylase AlphaLISA assay, KDM6A. It is filed as biochemical. The note with it: read-out: KDM6A HDME Inhibition IC50. In a few lines: as §1
Sequence of KDM6A (UTX) (O15550 919-1401): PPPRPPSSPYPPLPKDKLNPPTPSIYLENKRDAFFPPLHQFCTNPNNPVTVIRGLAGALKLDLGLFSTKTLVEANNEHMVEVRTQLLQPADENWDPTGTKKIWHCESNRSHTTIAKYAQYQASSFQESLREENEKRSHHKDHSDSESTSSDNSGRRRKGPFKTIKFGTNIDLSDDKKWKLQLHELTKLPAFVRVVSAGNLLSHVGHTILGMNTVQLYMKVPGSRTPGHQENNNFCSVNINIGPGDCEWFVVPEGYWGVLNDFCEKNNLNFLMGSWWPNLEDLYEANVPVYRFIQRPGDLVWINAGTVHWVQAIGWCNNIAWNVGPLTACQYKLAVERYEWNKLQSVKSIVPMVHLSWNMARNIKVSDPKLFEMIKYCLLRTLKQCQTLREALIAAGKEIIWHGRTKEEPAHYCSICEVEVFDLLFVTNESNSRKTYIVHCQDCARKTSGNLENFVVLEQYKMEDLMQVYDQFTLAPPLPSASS
In another assay the target is T2, KDM2B (FBXL10) (Homo sapiens, UniProt Q8NHM5).
T2 sequence (Q8NHM5 1-650): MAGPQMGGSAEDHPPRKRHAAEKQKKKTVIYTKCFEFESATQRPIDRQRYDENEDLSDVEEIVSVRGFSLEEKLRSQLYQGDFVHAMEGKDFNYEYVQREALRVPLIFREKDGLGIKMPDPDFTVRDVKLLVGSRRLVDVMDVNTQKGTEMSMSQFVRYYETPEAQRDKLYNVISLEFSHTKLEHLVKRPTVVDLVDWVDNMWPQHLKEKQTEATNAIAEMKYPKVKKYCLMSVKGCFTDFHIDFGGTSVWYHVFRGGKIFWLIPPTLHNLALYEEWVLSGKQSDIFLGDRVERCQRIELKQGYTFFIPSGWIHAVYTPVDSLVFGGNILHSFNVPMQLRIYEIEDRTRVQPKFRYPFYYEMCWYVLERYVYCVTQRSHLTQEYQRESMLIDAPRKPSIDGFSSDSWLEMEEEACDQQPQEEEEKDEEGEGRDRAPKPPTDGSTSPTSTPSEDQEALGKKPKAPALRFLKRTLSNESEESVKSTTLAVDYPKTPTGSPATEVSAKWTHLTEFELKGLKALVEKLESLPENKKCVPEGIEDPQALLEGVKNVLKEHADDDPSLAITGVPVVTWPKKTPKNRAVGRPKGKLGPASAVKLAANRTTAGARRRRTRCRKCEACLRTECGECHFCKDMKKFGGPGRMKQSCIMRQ
Description: Histone lysine demethylase AlphaLISA assay, KDM2B. It is filed as biochemical. As to conditions: read-out: KDM2B HDME Inhibition IC50. In a few lines: as §1

The target of the next assay is T3, KDM5B (Homo sapiens, UniProt Q9UGL1).
T3 construct: (a.a. 1-752); host or cells: U2OS
T3 sequence (Q9UGL1 1-752): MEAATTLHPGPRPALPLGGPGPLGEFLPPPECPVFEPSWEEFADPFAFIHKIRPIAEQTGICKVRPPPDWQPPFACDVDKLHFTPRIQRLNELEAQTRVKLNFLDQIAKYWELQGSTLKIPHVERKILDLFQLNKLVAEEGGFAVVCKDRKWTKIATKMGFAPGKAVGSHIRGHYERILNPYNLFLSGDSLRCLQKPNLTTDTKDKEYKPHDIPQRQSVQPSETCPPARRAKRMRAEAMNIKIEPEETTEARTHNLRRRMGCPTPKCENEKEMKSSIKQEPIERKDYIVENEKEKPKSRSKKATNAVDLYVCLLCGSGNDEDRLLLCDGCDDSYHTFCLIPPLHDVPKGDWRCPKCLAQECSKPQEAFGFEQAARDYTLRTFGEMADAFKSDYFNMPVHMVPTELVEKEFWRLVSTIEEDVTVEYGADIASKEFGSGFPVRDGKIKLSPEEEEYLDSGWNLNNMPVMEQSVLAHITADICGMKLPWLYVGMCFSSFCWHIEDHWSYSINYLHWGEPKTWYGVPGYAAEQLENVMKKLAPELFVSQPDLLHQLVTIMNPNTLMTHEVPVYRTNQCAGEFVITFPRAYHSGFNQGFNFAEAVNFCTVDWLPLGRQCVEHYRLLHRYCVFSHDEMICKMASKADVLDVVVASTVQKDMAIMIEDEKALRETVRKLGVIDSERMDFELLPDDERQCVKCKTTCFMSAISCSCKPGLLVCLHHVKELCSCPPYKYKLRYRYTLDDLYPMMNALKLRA
Description: Histone lysine demethylase immunofluorescence assay, U2OS cells transfected with KDM5B. As to conditions: U2OS cells transfected with pCMVHA KDM5B; mark detected H3K4me2; 20 hours. It is filed as cell-based. In a few lines: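 U2OS cells were transiently transfected with HA-tagged demethylase and reseeded after 6 h into compound-containing DMEM/10% FBS for 20 h. Cells were fixed in formaldehyde and immunostained for HA and the relevant histone methyl mark, then imaged. IC50 is based on mean mark staining in HA+ transfected cells.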

Each structure is given as a SMILES string.

T1 sequence (O15054 1043-1682 isoform O15054-1 limits assumed): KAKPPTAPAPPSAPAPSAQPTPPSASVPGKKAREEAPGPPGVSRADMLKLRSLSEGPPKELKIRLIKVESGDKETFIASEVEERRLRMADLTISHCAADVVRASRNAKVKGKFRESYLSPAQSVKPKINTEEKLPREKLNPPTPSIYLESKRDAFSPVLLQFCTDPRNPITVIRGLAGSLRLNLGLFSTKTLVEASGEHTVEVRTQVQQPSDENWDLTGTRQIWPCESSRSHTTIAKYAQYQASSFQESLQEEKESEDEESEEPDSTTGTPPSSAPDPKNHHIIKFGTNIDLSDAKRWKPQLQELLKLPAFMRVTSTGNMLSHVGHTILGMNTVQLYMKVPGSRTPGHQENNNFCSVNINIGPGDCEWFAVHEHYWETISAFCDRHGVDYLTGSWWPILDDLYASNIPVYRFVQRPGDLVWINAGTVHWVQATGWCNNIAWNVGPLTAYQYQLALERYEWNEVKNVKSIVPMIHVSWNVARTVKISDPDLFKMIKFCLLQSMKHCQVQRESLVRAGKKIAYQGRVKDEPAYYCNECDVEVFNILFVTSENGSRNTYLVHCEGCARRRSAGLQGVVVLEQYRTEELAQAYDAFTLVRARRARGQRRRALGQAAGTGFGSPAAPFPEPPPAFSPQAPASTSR

In the case of `CNCc1ccnc(CNCCCN(C)Cc2ccccc2)c1` [Compound 17, benzyl(methyl){3-[({4-[(methylamino)methyl]-pyridin-2-yl)methyl)-amino]propyl}-amine], the IC50 on KDM6B (JMJD3), on KDM6A (UTX), on KDM2B (FBXL10) and at KDM5B was greater than 2500 nM throughout.

Regarding `CCSCCNCc1cc(/C=N/C2CC2)ccn1` [Compound 39, N-{[2-({[2-(ethylsulfanyl)-ethyl]amino}methyl)pyridin-4-yl]methylidene}-cyclopropanamine], the IC50 is greater than 2500 nM at KDM6B (JMJD3), greater than 2500 nM on KDM6A (UTX), 250 to 2500 nM on KDM2B (FBXL10) and greater than 2500 nM against KDM5B.

On to `CCN(CC)CCCCNCc1cc(CN)ccn1` [Compound 5, [2-({[4-(diethylamino)butyl]-amino}methyl)pyridin-4-yl]methanamine], for which the concentration for half-maximal inhibition (IC50) at KDM6B (JMJD3) was greater than 2500 nM; on KDM6A (UTX), greater than 2500 nM; on KDM2B (FBXL10), greater than 2500 nM; at KDM5B, less than 250 nM.

As to `CCN1CCCC1CNC(=O)CNCc1cc(/C=N/C2CC2)ccn1` (stereo not drawn) [Compound 51, 2-[({4-[N-cyclopropyl-carboximidoyl]-pyridin-2-yl}methyl)-amino]-N-[(1-ethylpyrrolidin-2-yl)methyl]acetamide], the concentration for half-maximal inhibition (IC50) at KDM6B (JMJD3) is greater than 2500 nM; on KDM6A (UTX), greater than 2500 nM; at KDM2B (FBXL10), greater than 2500 nM; against KDM5B it was 250 to 2500 nM.

As for `CCN(CCN(C)C)C(=O)CNCc1cc(/C=N/CCO)ccn1` [Compound 66], the IC50 on KDM6B (JMJD3) is greater than 2500 nM; on KDM6A (UTX) it was greater than 2500 nM; at KDM2B (FBXL10), greater than 2500 nM; against KDM5B, less than 250 nM.

As for `O=C(CNCc1cc(/C=N/C2CC2)ccn1)N1CCC(Cc2ccccc2)CC1` [Compound 55, 1-(4-benzylpiperidin-1-yl)-2-[({4-[N-cyclopropyl-carboximidoyl]-pyridin-2-yl}methyl)amino]-ethan-1-one], the IC50 at KDM6B (JMJD3), on KDM6A (UTX), on KDM2B (FBXL10) and against KDM5B was greater than 2500 nM in each case.

As for `CN(CCCNCc1cc(/C=N/C2CC2)ccn1)Cc1ccccc1` [Compound 41, N-({2-[({3-[benzyl(methyl)amino]-propyl}amino)methyl]-pyridin-4-yl}methylidene)-cyclopropanamine], the IC50 at KDM6B (JMJD3) is greater than 2500 nM; on KDM6A (UTX), greater than 2500 nM; on KDM2B (FBXL10), greater than 2500 nM; at KDM5B, 250 to 2500 nM.

Consider `CCN(CC)CCCCNCc1cc(/C=N/CCO)ccn1` [Compound 61, 2-[{[2-({[4-(diethylamino)-butyl]amino}-methyl)pyridin-4-yl]methylidene}-amino]ethan-1-ol], for which the IC50 was greater than 2500 nM on KDM6B (JMJD3), greater than 2500 nM at KDM6A (UTX), greater than 2500 nM on KDM2B (FBXL10) and less than 250 nM against KDM5B.

Take `CCN(CC)CCCCNCc1cc(CNC(=O)C(F)(F)F)ccn1` [Compound 1, N-{[2-({[4-(diethylamino)butyl]-amino}methyl)pyridin-4-yl]methyl}-2,2,2-trifluoroacetamide]: the IC50 at KDM6B (JMJD3) was greater than 2500 nM; at KDM6A (UTX), greater than 2500 nM; on KDM2B (FBXL10), greater than 2500 nM; at KDM5B it was less than 250 nM.
